From PubChem BioAssay (NCI)
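How tested: cells in 96-well plates exposed to compound for 48 hours at five concentrations. GI50 marks 50% less growth. TGI denotes the concentration required for complete inhibition of growth.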

Columns and labels:
Experiment in all cases: DTP human tumour cell line panel, 48 h
SK-OV-3 ovarian = system: SK-OV-3 ovarian
OVCAR-4 ovarian = system: OVCAR-4 ovarian
BT-549 breast = system: BT-549 breast
HCC-2998 colon = system: HCC-2998 colon
MALME-3M melanoma = system: MALME-3M melanoma
CCRF-CEM leukemia = system: CCRF-CEM leukemia
HCT-15 colon = system: HCT-15 colon
SW-620 colon = system: SW-620 colon
SF-268 CNS = system: SF-268 CNS
SK-MEL-5 melanoma = system: SK-MEL-5 melanoma
RXF 393 renal = system: RXF 393 renal
NCI-H23 lung = system: NCI-H23 lung
OVCAR-5 ovarian = system: OVCAR-5 ovarian
SNB-19 CNS = system: SNB-19 CNS
T-47D breast = system: T-47D breast
EKVX NSCLC = system: EKVX NSCLC
OVCAR-8 ovarian = system: OVCAR-8 ovarian
SK-MEL-28 melanoma = system: SK-MEL-28 melanoma
NCI-H226 lung = system: NCI-H226 lung
COLO 205 colon = system: COLO 205 colon
K-562 leukemia = system: K-562 leukemia
DU-145 prostate = system: DU-145 prostate
LOX IMVI melanoma = system: LOX IMVI melanoma
HL-60(TB) leukemia = system: HL-60(TB) leukemia
HS 578T breast = system: HS 578T breast
ACHN renal = system: ACHN renal
SF-295 CNS = system: SF-295 CNS
TK-10 renal = system: TK-10 renal
NCI-H522 lung = system: NCI-H522 lung
MOLT-4 leukemia = system: MOLT-4 leukemia
MDA-MB-231 breast = system: MDA-MB-231 breast
U251 CNS = system: U251 CNS
HOP-62 NSCLC = system: HOP-62 NSCLC
SK-MEL-2 melanoma = system: SK-MEL-2 melanoma
M14 melanoma = system: M14 melanoma
MDA-MB-435 = system: MDA-MB-435
IGROV1 ovarian = system: IGROV1 ovarian
SR leukemia = system: SR leukemia
KM12 colon = system: KM12 colon
SN12C renal = system: SN12C renal
786-0 renal = system: 786-0 renal
RPMI-8226 leukemia = system: RPMI-8226 leukemia
NCI/ADR-RES ovarian = system: NCI/ADR-RES ovarian
A498 renal = system: A498 renal
SF-539 CNS = system: SF-539 CNS
CAKI-1 renal = system: CAKI-1 renal
PC-3 prostate = system: PC-3 prostate
UO-31 renal = system: UO-31 renal
HOP-92 NSCLC = system: HOP-92 NSCLC
SNB-75 CNS = system: SNB-75 CNS
OVCAR-3 ovarian = system: OVCAR-3 ovarian
NCI-H460 lung = system: NCI-H460 lung
HCT-116 colon = system: HCT-116 colon
HT29 colon = system: HT29 colon
A549 NSCLC = system: A549 NSCLC
MCF7 breast = system: MCF7 breast
UACC-62 melanoma = system: UACC-62 melanoma
UACC-257 melanoma = system: UACC-257 melanoma
MDA-N = system: MDA-N

CCOC(=O)c1c(CN2CCCCC2)nc2ccc(Cl)cc2c1-c1ccccc1 showed a GI50 (SK-OV-3 ovarian) of 23.1 µM, a TGI (SK-OV-3 ovarian) of 49 µM and a GI50 (OVCAR-4 ovarian) of 37.7 µM. The TGI (OVCAR-4 ovarian) was > 100 µM, the GI50 (BT-549 breast) was 39.5 µM and the TGI (BT-549 breast) was > 100 µM. For the same compound, the GI50 (HCC-2998 colon) was 19.1 µM, the TGI (HCC-2998 colon) was 35.8 µM and the GI50 (MALME-3M melanoma) was 25.1 µM. For the same compound, the TGI (MALME-3M melanoma) was 61.9 µM, the GI50 (CCRF-CEM leukemia) was 7.6 µM and the TGI (CCRF-CEM leukemia) was 36.6 µM. The GI50 (HCT-15 colon) was 21.4 µM, the TGI (HCT-15 colon) was 47.9 µM and the GI50 (SW-620 colon) was 18.5 µM. It also gave a TGI (SW-620 colon) of 39.2 µM, a GI50 (SF-268 CNS) of 23.2 µM and a TGI (SF-268 CNS) of 55.3 µM. The GI50 (SK-MEL-5 melanoma) was 17.4 µM, the TGI (SK-MEL-5 melanoma) was 32.8 µM and the GI50 (RXF 393 renal) was 21.4 µM. The TGI (RXF 393 renal) was 50 µM, the GI50 (NCI-H23 lung) was 24.2 µM and the TGI (NCI-H23 lung) was 64.1 µM. It also gave a GI50 (OVCAR-5 ovarian) of 17.6 µM, a TGI (OVCAR-5 ovarian) of 36.6 µM and a GI50 (SNB-19 CNS) of 21.8 µM. For the same compound, the TGI (SNB-19 CNS) was 48.4 µM, the GI50 (T-47D breast) was 17.1 µM and the TGI (T-47D breast) was 49.1 µM. It also gave a GI50 (EKVX NSCLC) of 25.2 µM, a TGI (EKVX NSCLC) of 69.2 µM and a GI50 (OVCAR-8 ovarian) of 35.4 µM. For the same compound, the TGI (OVCAR-8 ovarian) was > 100 µM, the GI50 (SK-MEL-28 melanoma) was 30.4 µM and the TGI (SK-MEL-28 melanoma) was 88.3 µM. For the same compound, the GI50 (NCI-H226 lung) was 20.7 µM, the TGI (NCI-H226 lung) was 40.4 µM and the GI50 (COLO 205 colon) was 22.9 µM. The TGI (COLO 205 colon) was 58.3 µM, the GI50 (K-562 leukemia) was 25.6 µM and the TGI (K-562 leukemia) was 92.7 µM. For the same compound, the GI50 (DU-145 prostate) was 32.5 µM, the TGI (DU-145 prostate) was > 100 µM and the GI50 (LOX IMVI melanoma) was 20 µM. The TGI (LOX IMVI melanoma) was 44.2 µM, the GI50 (HL-60(TB) leukemia) was 18.1 µM and the TGI (HL-60(TB) leukemia) was 43.4 µM. It also gave a GI50 (HS 578T breast) of 27.1 µM, a TGI (HS 578T breast) of 75.1 µM and a GI50 (ACHN renal) of 16.9 µM. The TGI (ACHN renal) was 35 µM, the GI50 (SF-295 CNS) was 31.5 µM and the TGI (SF-295 CNS) was 88 µM. For the same compound, the GI50 (TK-10 renal) was 42.7 µM, the TGI (TK-10 renal) was > 100 µM and the GI50 (NCI-H522 lung) was 19.2 µM. For the same compound, the TGI (NCI-H522 lung) was 53 µM, the GI50 (MOLT-4 leukemia) was 6.5 µM and the TGI (MOLT-4 leukemia) was 27.9 µM. The GI50 (MDA-MB-231 breast) was 15.9 µM, the TGI (MDA-MB-231 breast) was 35 µM and the GI50 (U251 CNS) was 20.3 µM. It also gave a TGI (U251 CNS) of 41.2 µM, a GI50 (HOP-62 NSCLC) of 23.9 µM and a TGI (HOP-62 NSCLC) of 56.5 µM. For the same compound, the GI50 (SK-MEL-2 melanoma) was 18.9 µM, the TGI (SK-MEL-2 melanoma) was 40.6 µM and the GI50 (M14 melanoma) was 24.6 µM. The TGI (M14 melanoma) was 72.7 µM, the GI50 (MDA-MB-435) was 35.1 µM and the TGI (MDA-MB-435) was > 100 µM. For the same compound, the GI50 (IGROV1 ovarian) was 24 µM, the TGI (IGROV1 ovarian) was > 100 µM and the GI50 (SR leukemia) was 15.7 µM. It also gave a TGI (SR leukemia) of 43.4 µM, a GI50 (KM12 colon) of 27.4 µM and a TGI (KM12 colon) of 78.3 µM. For the same compound, the GI50 (SN12C renal) was 20.3 µM, the TGI (SN12C renal) was 45 µM and the GI50 (786-0 renal) was 19.2 µM. It also gave a TGI (786-0 renal) of 41.8 µM, a GI50 (RPMI-8226 leukemia) of 20.4 µM and a TGI (RPMI-8226 leukemia) of 46.2 µM. For the same compound, the GI50 (NCI/ADR-RES ovarian) was 19.6 µM, the TGI (NCI/ADR-RES ovarian) was 58.2 µM and the GI50 (A498 renal) was 18.3 µM. The TGI (A498 renal) was 37.7 µM, the GI50 (SF-539 CNS) was 26.7 µM and the TGI (SF-539 CNS) was 66.2 µM. The GI50 (CAKI-1 renal) was 24.7 µM, the TGI (CAKI-1 renal) was 72.3 µM and the GI50 (PC-3 prostate) was 23.8 µM. It also gave a TGI (PC-3 prostate) of 93.7 µM, a GI50 (UO-31 renal) of 20.6 µM and a TGI (UO-31 renal) of 53.9 µM. It also gave a GI50 (HOP-92 NSCLC) of 15.8 µM, a TGI (HOP-92 NSCLC) of 39.9 µM and a GI50 (SNB-75 CNS) of 47.7 µM. For the same compound, the TGI (SNB-75 CNS) was > 100 µM, the GI50 (OVCAR-3 ovarian) was 17.7 µM and the TGI (OVCAR-3 ovarian) was 38.1 µM. The GI50 (NCI-H460 lung) was 20 µM, the TGI (NCI-H460 lung) was 43.2 µM and the GI50 (HCT-116 colon) was 15.6 µM. The TGI (HCT-116 colon) was 37 µM, the GI50 (HT29 colon) was 18.8 µM and the TGI (HT29 colon) was 54.2 µM. The GI50 (A549 NSCLC) was 29.6 µM, the TGI (A549 NSCLC) was > 100 µM and the GI50 (MCF7 breast) was 18.6 µM. It also gave a TGI (MCF7 breast) of 41.2 µM, a GI50 (UACC-62 melanoma) of 17.2 µM and a TGI (UACC-62 melanoma) of 38.1 µM. For the same compound, the GI50 (UACC-257 melanoma) was 22.4 µM and the TGI (UACC-257 melanoma) was 56.5 µM.

With O=C(C=P(c1ccccc1)(c1ccccc1)c1ccccc1)c1ccccc1-c1ccccc1C(=O)C=P(c1ccccc1)(c1ccccc1)c1ccccc1 the TGI (SK-OV-3 ovarian) was 0.366 µM, the TGI (OVCAR-4 ovarian) was 1.63 µM and the TGI (MALME-3M melanoma) was < 0.0208 µM. The TGI (CCRF-CEM leukemia) was 0.843 µM, the TGI (SF-268 CNS) was 1.61 µM and the TGI (SK-MEL-5 melanoma) was 0.0263 µM. It also gave a TGI (NCI-H23 lung) of 0.0899 µM, a TGI (OVCAR-5 ovarian) of 0.585 µM and a TGI (SNB-19 CNS) of 1.58 µM. For the same compound, the TGI (MDA-N) was 1.1 µM, the TGI (T-47D breast) was 2.08 µM and the TGI (EKVX NSCLC) was 0.91 µM. The TGI (SK-MEL-28 melanoma) was 2.03 µM, the TGI (COLO 205 colon) was 0.0222 µM and the TGI (K-562 leukemia) was 0.0905 µM. The TGI (DU-145 prostate) was 1.28 µM, the TGI (LOX IMVI melanoma) was 0.0716 µM and the TGI (HL-60(TB) leukemia) was < 0.0195 µM. The TGI (HS 578T breast) was 0.317 µM, the TGI (ACHN renal) was 1.12 µM and the TGI (SF-295 CNS) was 0.0496 µM. For the same compound, the TGI (TK-10 renal) was 0.182 µM, the TGI (NCI-H522 lung) was 1.78 µM and the TGI (MDA-MB-231 breast) was 0.158 µM. It also gave a TGI (HOP-62 NSCLC) of 0.507 µM, a TGI (M14 melanoma) of 1.42 µM and a TGI (MDA-MB-435) of 1.11 µM. For the same compound, the TGI (IGROV1 ovarian) was 1.36 µM, the TGI (SR leukemia) was 0.0667 µM and the TGI (KM12 colon) was 0.02 µM. It also gave a TGI (786-0 renal) of 1.25 µM, a TGI (SF-539 CNS) of 0.384 µM and a TGI (CAKI-1 renal) of 1.1 µM. For the same compound, the TGI (PC-3 prostate) was 1.23 µM, the TGI (HOP-92 NSCLC) was 0.0544 µM and the TGI (SNB-75 CNS) was 0.115 µM. For the same compound, the TGI (OVCAR-3 ovarian) was < 0.012 µM, the TGI (HCT-116 colon) was 0.259 µM and the TGI (MCF7 breast) was 0.0395 µM. The TGI (UACC-62 melanoma) was 1.33 µM.
